Patent publication US20110301079A1, “NEUROMEDIN U RECEPTOR AGONISTS AND USES THEREOF” (Instituto di Ricerche di Biologia Molecolare P. Angeletti …, priority 2007, published 2011)

Key:
dog NMUR2 = target: T1, dog NMUR2 (Canis lupus familiaris, UniProt A0A8I3MN59); assay: FLIPR calcium mobilization assay, dog NMUR2 cell line; assay type: cell-based
T1 construct: expressed in transfected cells
Text: (§1) Human, mouse or rat cDNAs encoding NMUR1 or NMUR2 (as described in Howard et al. Nature 406: 70-74 (2000) were subcloned in pcDNA5 (Invitrogen) and transfected into FLP-In CHO cells and HEK-293 FLP-In cells purchased from Invitrogen (Carlsbad, Calif.) using lipofectamine (Invitrogen). The Flp-In system allows integration and expression of a particular gene of interest at a specific genomic location utilizing the Flp recombinase from yeast. The transfected cells were selected by growth in medium containing 200 μg/mL hygromycin (Invitrogen). Populations were frozen at early passage numbers, and these stocks were used for further studies. Stable clones that expressed the mRNAs were identified functionally by FLIPR as well as by RT-PCR. […] Two different rodent NMUR1 cell lines were thus generated: one with the codon as predicted from the genomic databases and another cell line with an engineered methionine (ATG) as the start codon. The dog NMU receptors were also cloned from intestine RNA (NMUR1) and brain (NMUR2) and stable cell lines were generated as used for the human and rodent cell lines. […] To ensure high levels of expression in a heterologous system, a dog NMUR1 cell line was generated that contains an ATG as the start codon. Additionally, stable cell lines expressing the human receptors were generated in HEK-293/aeq 17 cells which stably express the aequorin gene under the CMV promoter. The human NMUR2 cDNA was cloned into pcDNA3.1 and human NMUR1 was subcloned into pIRES-puro (Clontech, Mountain View, Calif.), after transfection cells were selected in media containing G418 and either hygromycin (NMUR2) or puromycin (NMUR1).
(§2) The NMU receptors signal primarily through Gαq/11 proteins; therefore calcium mobilization assays can be utilized for functional activity.
(§3) Stable cell lines expressing human and or rodent NMUR1 or human NMUR2 receptors are plated at a density of 12,000 cells per well overnight on poly-lysine coated 384-well black-walled plates. The following day, the media is removed from the plates and the cells were subsequently loaded with Fluo-3 (Molecular Probes), a calcium sensitive dye, diluted in FLIPR buffer (1× Hank's buffered saline containing 20 mM HEPES, 0.1% BSA, 2.5 mM probenecid (Sigma) and 1.6 mM TR40). All reagents are from Invitrogen unless otherwise noted. Peptide stocks are resuspended in DMSO at a stock concentration of 2 mM and diluted in FLIPR buffer on the day of the experiment to a 4 μM working stock solution.
(§4) After a 90 minute incubation at room-temperature, cell plates are loaded onto a FLIPR (Molecular Devices) to monitor cellular fluorescence (excitation=488 nm; emission=540 nm) before and after compound/peptide addition. Eight to twelve point dose responses are tested on NMUR-expressing cell lines using FLIPR with 1 μM peptide as the highest dose. The response after peptide addition is taken as the maximum fluorescence units minus the fluorescence immediately prior to stimulation for each well. EC50 values are calculated using GraphPad Prism (San Diego, Calif.) software.
(§5) Percent activity refers to the maximum response at 1 μM compared to the human NMU-25 response at the same concentration.

human NMUR2 = target: T2, human NMUR2 (Homo sapiens, UniProt Q9GZQ4); assay: FLIPR calcium mobilization assay, human NMUR2-expressing cell line; assay type: cell-based
T2 construct: expressed in transfected cells; host or cells: FLP-In CHO cells and HEK-293 FLP-In cells (pcDNA5)
Text: as §1, §2, §3, §4, §5

[1] = tested on: male diet-induced obese mice; assay: Acute feeding study with NMU and NMS; assay type: in vivo
Experimental: Ad libitum fed male diet-induced obese mice obtained from Taconic Farms were weighed and dosed either i.p. or s.c. with NMS or NMU at about 30 minutes prior to the onset of the dark phase of the light cycle and provided with a pre-weighed aliquot of high fat diet (D12492: 60% kcal from fat: Research Diets, Inc.), which was then weighed two and 18 hours after the onset of the initial dark phase. Mice were weighed at the 18 hour (overnight) time point.

[2] = tested on: diet-induced obese animals; assay: Chronic administration by subcutaneous micro-osmotic pumps; assay type: in vivo, mice; conditions: two weeks
Experimental: Chronic administration of peptide was evaluated using micro-osmotic pumps designed to deliver 0.5 μl/h (Alza Co.). Pumps were filled with peptide or vehicle and implanted subcutaneously in the intrascapular space in diet-induced obese animals. Mice were fed ad libitum and food intake and body weight were measured daily for two weeks. […] Cumulative body weight change (FIG. 2A) and cumulative food intake (FIG. 2B) with two-week treatment of NMU and NMS are shown.

mouse NMUR1-ATG = target: T3, mouse NMUR1-ATG (Mus musculus, UniProt O55040); assay: FLIPR calcium mobilization assay, mouse NMUR1-ATG cell line; assay type: cell-based
T3 construct: expressed in transfected cells; host or cells: FLP-In CHO cells and HEK-293 FLP-In cells (pcDNA5)
T3 sequence (O55040 1-428): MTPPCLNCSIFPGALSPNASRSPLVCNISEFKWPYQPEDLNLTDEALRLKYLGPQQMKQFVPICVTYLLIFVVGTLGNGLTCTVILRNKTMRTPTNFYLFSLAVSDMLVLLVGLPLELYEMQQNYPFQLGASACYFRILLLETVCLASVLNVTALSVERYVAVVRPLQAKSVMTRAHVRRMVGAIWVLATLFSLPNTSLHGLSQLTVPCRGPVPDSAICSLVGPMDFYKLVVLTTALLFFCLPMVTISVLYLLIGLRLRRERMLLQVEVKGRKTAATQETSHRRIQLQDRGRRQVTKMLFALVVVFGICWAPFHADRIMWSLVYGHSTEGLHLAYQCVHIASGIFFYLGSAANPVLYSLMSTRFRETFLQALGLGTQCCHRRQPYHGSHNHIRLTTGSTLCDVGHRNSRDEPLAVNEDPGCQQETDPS
Text: as §1, §2, §3, §4, §5

human NMUR1 = target: T4, human NMUR1 (Homo sapiens, UniProt Q9HB89); assay: FLIPR calcium mobilization assay, human NMUR1-expressing cell line; assay type: cell-based
T4 construct: expressed in transfected cells; host or cells: FLP-In CHO cells and HEK-293 FLP-In cells (pcDNA5)
T4 sequence (Q9HB89 1-426): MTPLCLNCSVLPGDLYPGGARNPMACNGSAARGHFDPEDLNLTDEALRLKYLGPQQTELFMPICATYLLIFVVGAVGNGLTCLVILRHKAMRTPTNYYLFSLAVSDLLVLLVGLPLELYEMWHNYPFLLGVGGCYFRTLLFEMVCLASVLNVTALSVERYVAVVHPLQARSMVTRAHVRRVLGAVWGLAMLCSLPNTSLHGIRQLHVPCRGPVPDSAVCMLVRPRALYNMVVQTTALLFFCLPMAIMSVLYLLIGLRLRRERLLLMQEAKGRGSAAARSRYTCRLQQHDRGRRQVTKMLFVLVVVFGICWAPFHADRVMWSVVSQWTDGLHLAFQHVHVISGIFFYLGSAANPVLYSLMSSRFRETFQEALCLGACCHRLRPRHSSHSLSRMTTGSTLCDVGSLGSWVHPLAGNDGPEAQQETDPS
Text: as §1, §2, §3, §4, §5

T1 sequence (A0A8I3MN59 1-378): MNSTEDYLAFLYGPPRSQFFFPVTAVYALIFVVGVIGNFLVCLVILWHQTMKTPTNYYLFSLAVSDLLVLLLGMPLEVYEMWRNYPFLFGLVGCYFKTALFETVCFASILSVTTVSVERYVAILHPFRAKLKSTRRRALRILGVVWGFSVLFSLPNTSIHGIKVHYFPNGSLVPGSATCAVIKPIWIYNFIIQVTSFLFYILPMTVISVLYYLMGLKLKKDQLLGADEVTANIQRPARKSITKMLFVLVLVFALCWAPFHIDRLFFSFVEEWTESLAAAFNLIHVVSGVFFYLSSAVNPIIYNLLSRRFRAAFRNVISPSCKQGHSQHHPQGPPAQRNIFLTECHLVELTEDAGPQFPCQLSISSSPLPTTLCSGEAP
T2 sequence (Q9GZQ4 whole entry): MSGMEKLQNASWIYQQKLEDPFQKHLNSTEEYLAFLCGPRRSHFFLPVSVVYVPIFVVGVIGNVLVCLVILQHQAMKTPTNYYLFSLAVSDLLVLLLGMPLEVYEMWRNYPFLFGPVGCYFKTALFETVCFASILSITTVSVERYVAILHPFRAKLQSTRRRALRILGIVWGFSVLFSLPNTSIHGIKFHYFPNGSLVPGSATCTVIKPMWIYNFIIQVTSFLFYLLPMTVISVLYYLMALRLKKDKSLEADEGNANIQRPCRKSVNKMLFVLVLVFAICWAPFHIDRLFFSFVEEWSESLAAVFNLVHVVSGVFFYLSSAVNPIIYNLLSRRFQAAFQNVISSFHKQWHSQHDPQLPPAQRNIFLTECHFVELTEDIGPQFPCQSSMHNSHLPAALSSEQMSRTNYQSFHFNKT

EC50 (dog NMUR2; dog NMUR2, FLIPR): 1 nM
% Activity (dog NMUR2; dog NMUR2, maximum response at 1 μM compared to the human NMU-25 response at the same concentration): 104%
EC50 (human NMUR2; human NMUR2, FLIPR): 12.6 nM
% Activity (human NMUR2; human NMUR2, maximum response at 1 μM compared to the human NMU-25 response at the same concentration): 107%
EC50 (mouse NMUR1-ATG; FLIPR): 7 nM
% Activity (mouse NMUR1-ATG; maximum response at 1 μM compared to the human NMU-25 response at the same concentration): 102%
EC50 (human NMUR1; human NMUR1, FLIPR): 6.7 nM
% Activity (human NMUR1; human NMUR1, maximum response at 1 μM compared to the human NMU-25 response at the same concentration): 97%
Substance: H-ILQRGSGTAAVDFTKKDHTATWGRPFFLFRPRN-NH2 [NMS, reference compound]
anorectic effects compared with NMU ([1]; acute peripheral administration): appeared to be greater than the anorectic effects observed with NMU
food intake ([1]; acute peripheral administration (i.p. or s.c.), FIG. 1A): significantly reduced
body weight ([1]; acute peripheral administration, 18 hour (overnight), FIG. 1B): significantly reduced
effect on food intake and body weight compared with NMU [2]: appeared to be greater than that observed for NMU
body weight ([2]; cumulative change, FIG. 2A): significantly reduced
food intake ([2]; cumulative, FIG. 2B): significantly reduced
